Reference: PMC10835127, “Viruses traverse the human proteome through peptide interfaces that can be biomimetically leveraged for drug discovery” (Proceedings of the National Academy of Sciences of the …, 2024)
Where two headings read alike, the source gives them in different places.

Key:
HIV1 strain NL4-3 = assay type: cell-based; settings: for activity in HIV1 screen (in words): 20 µM peptide, HeLa P4 cells, β-galactosidase
HCV replicon = assay type: cell-based
[1] = system: F. novicida (strain U112); assay type: cell-based
influenza A H1N1 virus = settings: 48 hr post-treatment, A549
[2] = normalized mean of HIV1 replication readout
[3] = normalized mean of HCV replicon readout
[4] = normalized mean of EBV replication readout
[5] = normalized mean of HIV1 replication readout, peptide screen
[6] = normalized mean of HCV replicon readout, peptide screen
[7] = normalized mean of EBV replication readout, peptide screen

Row | Substance | HIV1 Norm MEAN (HIV1 strain NL4-3; [2]) | HCV Norm MEAN (HCV replicon; [3]) | Francisella novicida Norm AUC [1] | Neuraminidase activity normalized to vehicle (influenza A H1N1 virus; 200 µM peptide) | Neuraminidase activity normalized to vehicle (influenza A H1N1 virus; 0,823 µM peptide) | Neuraminidase activity normalized to vehicle (influenza A H1N1 virus; 22,2 µM peptide) | Neuraminidase activity normalized to vehicle (influenza A H1N1 virus; 2,4691 µM peptide) | Neuraminidase activity normalized to vehicle (influenza A H1N1 virus; 7,4074 µM peptide) | Neuraminidase activity normalized to vehicle (influenza A H1N1 virus; 66,6667 µM peptide) | EBV Norm MEAN (EBV; [4]) | activity in HIV1 screen (in words) (HIV1 strain NL4-3) | HIV1 Norm MEAN (HIV1 strain NL4-3; [5]) | HCV Norm MEAN (HCV replicon; [6]) | EBV Norm MEAN (EBV; [7]) | HIV1 Norm MEAN (HIV1 strain NL4-3) | HCV Norm MEAN (HCV replicon) | EBV Norm MEAN (EBV)
1 | HGCPL [CPEP33] | 0.2429 | 0.1691 | 0.6368 | 0,999 | 0,7063 | 0,8914 | 0,8619 | 0,7735 | 1,0094 | 1.339 |  |  |  |  |  |  | 
2 | YLTDM [CPEP154] | 1.461 | 0.1792 | 0.5909 | 1,0928 | 1,0316 | 1,0253 | 0,9855 | 1,0107 | 1,0399 | 1.807 |  |  |  |  |  |  | 
3 | SEKHFRETEV [CPEP106] | 0.4711 | 1.4 | 0.8616 | 1,1108 | 0,9396 | 1,0803 | 0,9387 | 1,0552 | 1,1055 | 1.282 |  |  |  |  |  |  | 
4 | KLVTELAENS [CPEP129] | 0.8117 | 0.8005 | 0.9413 | 0,8014 | 1,1002 | 0,8882 | 1,0838 | 0,9983 | 0,7782 | 1.255 |  |  |  |  |  |  | 
5 | LHCYE [CPEP152] | 1.7684 | 0.1555 | 0.5262 | 1,0605 | 0,8889 | 0,9121 | 0,8832 | 0,8045 | 1,0197 | 1.379 |  |  |  |  |  |  | 
6 | CPEP63: peptide of the viral peptide library; sequence page not shown (KARHKRRNRSSRS) | 0.7086 | 0.5995 | 1.1166 | 0,8323 | 0,6161 | 0,9172 | 1 | 0,9177 | 0,9488 | 1.249 |  |  |  |  |  |  | 
7 | LTMVI [CPEP12] | 1.936 | 0.1977 | 1.651 | 0,732 | 0,7557 | 0,8312 | 0,7112 | 0,7657 | 0,8968 | 1.608 |  |  |  |  |  |  | 
8 | CPEP142: peptide of the viral peptide library; sequence page not shown (LGIVCPICSQKP) | 0.603 | 0.308 | 1.819 | 0,8923 | 0,9385 | 0,9689 | 0,9538 | 0,9445 | 1,085 | 1.863 |  |  |  |  |  |  | 
9 | IKQEDIKP [CPEP109] | 0.5534 | 0.2159 | 0.9859 | 0,7052 | 0,9055 | 0,889 | 0,8881 | 0,975 | 0,8029 | 0.5875 |  |  |  |  |  |  | 
10 | SAIASGIAVS [CPEP72] | 7.153 | 1.456 | 1.051 | 1,0607 | 1,0538 | 1,1913 | 1,1217 | 1,1419 | 1,1769 | 0.8997 | strongly |  |  |  |  |  | 
11 | CPEP103: viral library peptide from HCV NS4A targeting EEF1A1 (GCVVIVGRIVLSGK) |  |  | 0.5448 | 0,0978 | 0,8342 | 0,2828 | 0,8866 | 0,7276 | 0,1254 |  |  | 0.2448 | 0.4622 | 0.7665 |  |  | 
12 | QRRGRTGRG [CPEP40] | 0.4037 | 0.7133 | 1.732 | 0,9281 | 1,0647 | 1,004 | 0,9944 | 1,0761 | 0,9318 | 0.7195 |  |  |  |  |  |  | 
13 | CPEP83: peptide of the viral peptide library; sequence page not shown (LHGLSAFSLHSYS) | 3.012 | 0.4141 | 1.204 | 0,249 | 0,6779 | 0,9424 | 0,9223 | 0,934 | 0,7894 | 0.5883 |  |  |  |  |  |  | 
14 | SVWIPVNEGASTSGM [CPEP77] |  |  | 1.232 | 0,8793 | 0,7817 | 0,9377 | 0,8942 | 0,7709 | 0,8131 |  | most potent anti-HIV1 peptide | 0.1545 | 0.6626 | 1.026 |  |  | 
15 | PEPTAPPEE [CPEP147] |  |  | 1.176 |  |  |  |  |  |  |  |  |  |  |  | 0.3632 | 1.15 | 0.5114
